Data reported in ChEMBL document CHEMBL1158202, “Plakortides, novel cyclic peroxides from the sponge Plakortis halichondrioides: activators of cardiac SR-CA(2+)-pumping ATPase” (J Nat Prod, 1996).
Active and inactive are the calls of the source. The calls are words filed in the database; no cut-off is given here.

Species on record: Canis lupus familiaris
Test: Induction of Ca2+ uptake in sarcoplasmic reticular-vesicle isolated from dog cardiac ventricle at 10 to 100 uM by fluorimetric method
Format: functional, tissue-based

Row | Compound | Activity
1 | CC/C=C/C(CC)C[C@@]1(C)C[C@@H](CC)[C@H](CC(=O)OC)OO1 (some centres undefined) | Active
2 | CC/C=C/C(CC)C/C(C)=C/[C@]1(CC)C[C@H](CC)[C@H](CC(=O)OC)OO1 (some centres undefined) | Active
3 | CC/C=C/C(CC)CCC[C@@]1(CC)C[C@H](CC)[C@H](CC(=O)OC)OO1 (some centres undefined) | Active
4 | CC/C=C/C(CC)CCC[C@]1(CC)C[C@H](CC)[C@H](CC(=O)OC)OO1 (some centres undefined) | Active
